Assay results published in patent US10160755B2 (Plexxikon Inc., priority 2015, dated 2018).

The compounds below were run against T1, BA/F3-FLT3-ITD + F691L cells (Homo sapiens, UniProt P36888, F691L, cells depend on it, form not given) (assay: BA/F3-FLT3-ITD + F691L cell proliferation assay (CellTiter-Glo)). Details: BaF3 FLT3 ITD/F691L cells; read-out: Cell Activity (IC50 μM) BaF3_FLT3_ITD/F691L.
T1 sequence (P36888 1-993 F691L): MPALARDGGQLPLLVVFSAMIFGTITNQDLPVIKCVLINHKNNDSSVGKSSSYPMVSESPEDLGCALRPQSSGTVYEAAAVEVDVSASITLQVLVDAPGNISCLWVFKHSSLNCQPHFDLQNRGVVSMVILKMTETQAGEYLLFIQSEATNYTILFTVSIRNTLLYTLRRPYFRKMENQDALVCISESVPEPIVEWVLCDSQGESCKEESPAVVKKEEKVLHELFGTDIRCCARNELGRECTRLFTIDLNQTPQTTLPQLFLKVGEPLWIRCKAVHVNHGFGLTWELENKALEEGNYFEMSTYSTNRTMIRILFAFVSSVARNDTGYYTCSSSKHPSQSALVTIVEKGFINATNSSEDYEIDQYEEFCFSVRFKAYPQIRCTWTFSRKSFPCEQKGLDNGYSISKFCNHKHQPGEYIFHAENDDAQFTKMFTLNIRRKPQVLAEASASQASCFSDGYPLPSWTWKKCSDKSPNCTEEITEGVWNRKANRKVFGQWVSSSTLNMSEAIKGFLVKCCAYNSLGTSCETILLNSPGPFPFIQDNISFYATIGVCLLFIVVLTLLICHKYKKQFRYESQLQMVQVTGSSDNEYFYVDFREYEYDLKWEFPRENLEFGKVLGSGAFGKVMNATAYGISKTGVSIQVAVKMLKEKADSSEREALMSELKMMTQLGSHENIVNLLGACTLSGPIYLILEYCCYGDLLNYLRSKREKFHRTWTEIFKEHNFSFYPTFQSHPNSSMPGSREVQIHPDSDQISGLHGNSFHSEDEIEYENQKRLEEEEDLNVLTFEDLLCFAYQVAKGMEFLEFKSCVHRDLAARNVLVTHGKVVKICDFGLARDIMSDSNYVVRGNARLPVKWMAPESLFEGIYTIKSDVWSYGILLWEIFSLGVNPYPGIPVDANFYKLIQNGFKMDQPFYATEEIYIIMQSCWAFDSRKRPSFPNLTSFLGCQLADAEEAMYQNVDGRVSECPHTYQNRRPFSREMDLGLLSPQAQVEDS
Type: cell-based, murine
Source text: The FLT3 inhibitors may also be assessed using leukemia cell lines that express endogenous FLT3-ITD or cells that are engineered to express wild-type or mutant FLT3. The cells expressing endogenous FLT3 are dependent upon FLT3 catalytic activity for growth. For the engineered cells, murine BA/F3 cells were transfected with full-length FLT3 (either wild-type, or containing the ITD, D835Y, or F691L mutations, as noted). The parental BA/F3 cells are dependent upon Interleukin-3 (IL-3) for survival, and introduction of the FLT3 constructs renders these cells dependent upon FLT3 kinase activity when cultured in the absence of IL-3. Engineered BA/F3 cell growth assays can be performed in either the absence or presence of IL-3, to assess the compound inhibition of FLT3 or to detect the presence of off-target activity, respectively. Inhibitors of FLT3 kinase activity reduce or eliminate the FLT3 oncogenic signaling, resulting in reduced cell proliferation. This inhibition is measured as a function of compound concentration to assess IC50 values.
Cells were seeded at 1×10^4 cells per well of a 96 well cell culture plate in 50 μl of cell culture medium. Compounds were dissolved in DMSO, typically at a concentration of 5 mM and were serially diluted 1:3 for a total of eight points and added to the cells to final concentrations of 10, 3.3, 1.1, 0.37, 0.12, 0.041, 0.014 and 0.0046 μM in 100 μl cell culture medium (final concentration 0.2% DMSO). […] The cells were incubated at 37° C., 5% CO2 for three days. CellTiter-Glo Buffer (Promega Cell Viability Assay catalog #G7573) and substrate were equilibrated to room temperature, and enzyme/substrate Recombinant Firefly Luciferase/Beetle Luciferin was reconstituted. The cell plates were equilibrated to room temperature for 30 minutes, then lysed by addition of an equivalent volume of the Celltiter-Glo Reagent. The plate was mixed for 10 minutes on a plate shaker to lyse the cells. The plates were read on a Tecan M1000 using Luminescence protocol modified to read 0.1 s per well. The luminescence reading assesses the ATP content, which correlates directly with cell number such that the reading as a function of compound concentration was used to determine the IC50 value.

`O=S1(=O)CCCCN1c1cccc(-c2cnc3[nH]cc(-c4ccc5ncn(C6CCCNC6)c5c4)c3n2)c1` (centres unmarked) [P-253, 2-[3-[7-[3-(3-piperidyl)benzimidazol-5-yl]-5H-pyrrolo[2,3-b]pyrazin-2-yl]phenyl]thiazinane 1,1-dioxide] and `O=S1(=O)CCCCN1c1cccc(-c2cnc3[nH]cc(-c4ccc5ncn(C6CCCNC6)c5c4)c3c2)c1` (centres unmarked) [P-224, 2-[3-[3-[3-(3-piperidyl)benzimidazol-5-yl]-1H-pyrrolo[2,3-b]pyridin-5-yl]phenyl]thiazinane 1,1-dioxide] fall in the same range of GI50: 0.0001 to 1 µM for the first, 0.0001 to 1 µM for the second.

`CC(C)(C)n1cnc2ccc(-c3c[nH]c4ncc(-c5cccc(N6CCCS6(=O)=O)c5)nc34)cc21` [P-231, 2-[3-[7-(3-tert-butylbenzimidazol-5-yl)-5H-pyrrolo[2,3-b]pyrazin-2-yl]phenyl]-1,2-thiazolidine 1,1-dioxide] and `CC(C)(C)n1cnc2ccc(-c3c[nH]c4ncc(-c5cccc(NS(C)(=O)=O)c5)nc34)cc21` [P-097, N-[3-[7-(3-tert-butylbenzimidazol-5-yl)-5H-pyrrolo[2,3-b]pyrazin-2-yl]phenyl]methanesulfonamide] fall in the same range of GI50: 0.0001 to 1 µM for the first, 0.0001 to 1 µM for the second.

Compared with `CC(C)(C)n1cnc2ccc(-c3c[nH]c4ncc(C#Cc5cccc(C#N)c5)cc34)cc21` [P-242, 3-[2-[3-(3-tert-butylbenzimidazol-5-yl)-1H-pyrrolo[2,3-b]pyridin-5-yl]ethynyl]benzonitrile], `CC(C)(C)n1cnc2ccc(-c3c[nH]c4ncc(C(=O)Nc5cccc(C#N)c5)cc34)cc21` [P-218, 3-(3-tert-butylbenzimidazol-5-yl)-N-(3-cyanophenyl)-1H-pyrrolo[2,3-b]pyridine-5-carboxamide] is lower in GI50: 1 to 10 µM for the first, 0.0001 to 1 µM for the second.

`COc1cnc2[nH]cc(-c3ccc4ncn(-c5cccc(F)c5)c4c3)c2c1` [P-128, 1-(3-fluorophenyl)-6-(5-methoxy-1H-pyrrolo[2,3-b]pyridin-3-yl)benzimidazole] and `COc1cnc2[nH]cc(-c3ccc4ncn(-c5cccc(C#N)c5)c4c3)c2c1` [P-135, 3-[6-(5-methoxy-1H-pyrrolo[2,3-b]pyridin-3-yl)benzimidazol-1-yl]benzonitrile] fall in the same range of GI50: 0.0001 to 1 µM for the first, 0.0001 to 1 µM for the second.

`COc1cc(-c2cnc3[nH]cc(-c4ccc5ncn([C@@H]6CCCNC6)c5c4)c3n2)ccn1` [P-254, 2-(2-methoxy-4-pyridyl)-7-[3-[(3R)-3-piperidyl]benzimidazol-5-yl]-5H-pyrrolo[2,3-b]pyrazine] and `COc1ncc(-c2cnc3[nH]cc(-c4ccc5ncn(C6CCCNC6)c5c4)c3n2)cn1` (centres unmarked) [P-264, 2-(2-methoxypyrimidin-5-yl)-7-[3-(3-piperidyl)benzimidazol-5-yl]-5H-pyrrolo[2,3-b]pyrazine] fall in the same range of GI50: 0.0001 to 1 µM for the first, 0.0001 to 1 µM for the second.

`COc1cnc2[nH]cc(-c3ccc4ncn(Cc5ccc(F)cc5)c4c3)c2c1` [P-110, 1-[(4-fluorophenyl)methyl]-6-(5-methoxy-1H-pyrrolo[2,3-b]pyridin-3-yl)benzimidazole] and `COc1ncc(-c2cnc3[nH]cc(-c4ccc5ncn(C(C)C)c5c4)c3c2)cn1` [P-269, 1-isopropyl-6-[5-(2-methoxypyrimidin-5-yl)-1H-pyrrolo[2,3-b]pyridin-3-yl]benzimidazole] fall in the same range of GI50: 0.0001 to 1 µM for the first, 0.0001 to 1 µM for the second.

`CC(C)S(=O)(=O)Nc1cccc(-c2cnc3[nH]cc(-c4ccc5ncn(C(C)(C)C)c5c4)c3n2)c1` [P-232, N-[3-[7-(3-tert-butylbenzimidazol-5-yl)-5H-pyrrolo[2,3-b]pyrazin-2-yl]phenyl]propane-2-sulfonamide] and `CCCS(=O)(=O)Nc1cccc(-c2cnc3[nH]cc(-c4ccc5ncn(C(C)(C)C)c5c4)c3n2)c1` [P-225, N-[3-[7-(3-tert-butylbenzimidazol-5-yl)-5H-pyrrolo[2,3-b]pyrazin-2-yl]phenyl]propane-1-sulfonamide] fall in the same range of GI50: 0.0001 to 1 µM for the first, 0.0001 to 1 µM for the second.

`c1cc(-c2cnc3[nH]cc(-c4ccc5ncn(C6CCCNC6)c5c4)c3c2)cc(N2CCOCC2)n1` (centres unmarked) [P-223, 4-[4-[3-[3-(3-piperidyl)benzimidazol-5-yl]-1H-pyrrolo[2,3-b]pyridin-5-yl]-2-pyridyl]morpholine] and `CC(C)S(=O)(=O)Nc1cccc(-c2cnc3[nH]cc(-c4ccc5ncn(C6CCCNC6)c5c4)c3c2)c1` (centres unmarked) [P-215, N-[3-[3-[3-(3-piperidyl)benzimidazol-5-yl]-1H-pyrrolo[2,3-b]pyridin-5-yl]phenyl]propane-2-sulfonamide] fall in the same range of GI50: 0.0001 to 1 µM for the first, 0.0001 to 1 µM for the second.

`CC(C)(CO)n1cnc2ccc(-c3c[nH]c4ncc(-c5cccc(NS(C)(=O)=O)c5)nc34)cc21` [P-115, N-[3-[7-[3-(2-hydroxy-1,1-dimethyl-ethyl)benzimidazol-5-yl]-5H-pyrrolo[2,3-b]pyrazin-2-yl]phenyl]methanesulfonamide] and `CC(C)(C)n1cnc2ccc(-c3c[nH]c4ncc(-c5ccc(F)c(C#N)c5)nc34)cc21` [P-230, 5-[7-(3-tert-butylbenzimidazol-5-yl)-5H-pyrrolo[2,3-b]pyrazin-2-yl]-2-fluoro-benzonitrile] fall in the same range of GI50: 0.0001 to 1 µM for the first, 0.0001 to 1 µM for the second.

`C(#Cc1cnc2[nH]cc(-c3ccc4ncn(C5CCCNC5)c4c3)c2n1)c1ccccc1` (centres unmarked) [P-248, 2-(2-phenylethynyl)-7-[3-(3-piperidyl)benzimidazol-5-yl]-5H-pyrrolo[2,3-b]pyrazine] and `N#Cc1cccc(C(=O)Nc2cnc3[nH]cc(-c4ccc5ncn(C6CCCNC6)c5c4)c3c2)c1` (centres unmarked) [P-236, 3-cyano-N-[3-[3-(3-piperidyl)benzimidazol-5-yl]-1H-pyrrolo[2,3-b]pyridin-5-yl]benzamide] fall in the same range of GI50: 0.0001 to 1 µM for the first, 0.0001 to 1 µM for the second.

`Cn1cnc2ccc(-c3c[nH]c4ncc(-c5cnn(CC(F)(F)F)c5)cc34)cc21` [P-175, 1-methyl-6-[5-[1-(2,2,2-trifluoroethyl)pyrazol-4-yl]-1H-pyrrolo[2,3-b]pyridin-3-yl]benzimidazole] and `CN(c1cccc(-c2cnc3[nH]cc(-c4ccc5ncn(C)c5c4)c3c2)c1)S(C)(=O)=O` [P-120, N-methyl-N-[3-[3-(3-methylbenzimidazol-5-yl)-1H-pyrrolo[2,3-b]pyridin-5-yl]phenyl]methanesulfonamide] fall in the same range of GI50: 0.0001 to 1 µM for the first, 0.0001 to 1 µM for the second.

First: N#Cc1cccc(NC(=O)c2cnc3[nH]cc(-c4ccc5ncn(C6CCCNC6)c5c4)c3c2)c1 (centres unmarked) [P-219, N-(3-cyanophenyl)-3-(1-(piperidin-3-yl)-1H-benzo[d]imidazol-6-yl)-1H-pyrrolo[2,3-b]pyridine-5-carboxamide]
Second: O=S(=O)(c1cccc(-c2cnc3[nH]cc(-c4ccc5ncn(C6CCCNC6)c5c4)c3n2)c1)N1CCCC1 (centres unmarked) [P-237, 7-[3-(3-piperidyl)benzimidazol-5-yl]-2-(3-pyrrolidin-1-ylsulfonylphenyl)-5H-pyrrolo[2,3-b]pyrazine]
The GI50 of the first is higher: 1 to 10 µM for the first, 0.0001 to 1 µM for the second.

`COc1cc(C(=O)Nc2cnc3[nH]cc(-c4ccc5ncn(C(C)(C)C)c5c4)c3c2)ccn1` [P-245, N-[3-(3-tert-butylbenzimidazol-5-yl)-1H-pyrrolo[2,3-b]pyridin-5-yl]-2-methoxy-pyridine-4-carboxamide] and `COc1ncc(-c2cnc3[nH]cc(-c4ccc5ncn(C(C)(C)C)c5c4)c3c2)cn1` [P-265, 1-(tert-butyl)-6-(5-(2-methoxypyrimidin-5-yl)-1H-pyrrolo[2,3-b]pyridin-3-yl)-1H-benzo[d]imidazole] fall in the same range of GI50: 0.0001 to 1 µM for the first, 0.0001 to 1 µM for the second.
